According to PubChem BioAssay (NCI):
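Growth conditions: 96-well plates. Treatment: test compound, 48 hours, 5 concentrations. Analysis: linear interpolation between bracketing concentrations; unreached endpoints set to highest concentration. At the GI50, growth is halved. TGI marks complete inhibition of growth.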

Assays:
Test in all cases: growth of human tumour cells (NCI), 48 h
NCI-H23 lung = test system: NCI-H23 lung
NCI-H460 lung = test system: NCI-H460 lung
NCI-H522 lung = test system: NCI-H522 lung
NCI/ADR-RES ovarian = test system: NCI/ADR-RES ovarian
OVCAR-3 ovarian = test system: OVCAR-3 ovarian
OVCAR-4 ovarian = test system: OVCAR-4 ovarian
OVCAR-5 ovarian = test system: OVCAR-5 ovarian
OVCAR-8 ovarian = test system: OVCAR-8 ovarian
PC-3 prostate = test system: PC-3 prostate
RPMI-8226 leukemia = test system: RPMI-8226 leukemia
RXF 393 renal = test system: RXF 393 renal
SF-268 CNS = test system: SF-268 CNS
SF-295 CNS = test system: SF-295 CNS
SF-539 CNS = test system: SF-539 CNS
SK-MEL-2 melanoma = test system: SK-MEL-2 melanoma
SK-MEL-28 melanoma = test system: SK-MEL-28 melanoma
SK-MEL-5 melanoma = test system: SK-MEL-5 melanoma
SN12C renal = test system: SN12C renal
SNB-19 CNS = test system: SNB-19 CNS
SNB-75 CNS = test system: SNB-75 CNS
SR leukemia = test system: SR leukemia
SW-620 colon = test system: SW-620 colon
T-47D breast = test system: T-47D breast
TK-10 renal = test system: TK-10 renal
U251 CNS = test system: U251 CNS
UACC-257 melanoma = test system: UACC-257 melanoma
UACC-62 melanoma = test system: UACC-62 melanoma
UO-31 renal = test system: UO-31 renal

CCN1C(=O)/C(=C/c2c(Cl)[nH]c3cc(C)c(OC)cc23)c2ccccc21
GI50 (NCI-H23 lung): 5.37 µM | TGI (NCI-H23 lung): > 100 µM | GI50 (NCI-H460 lung): 3.31 µM | TGI (NCI-H460 lung): 70.2 µM | GI50 (NCI-H522 lung): 0.823 µM | TGI (NCI-H522 lung): 6.58 µM | GI50 (NCI/ADR-RES ovarian): 4.65 µM | TGI (NCI/ADR-RES ovarian): 65 µM | GI50 (OVCAR-3 ovarian): 2.6 µM | TGI (OVCAR-3 ovarian): 8.37 µM | GI50 (OVCAR-4 ovarian): 29.8 µM | TGI (OVCAR-4 ovarian): > 100 µM | GI50 (OVCAR-5 ovarian): 16.5 µM | TGI (OVCAR-5 ovarian): 85.3 µM | GI50 (OVCAR-8 ovarian): 4.29 µM | TGI (OVCAR-8 ovarian): > 100 µM | GI50 (PC-3 prostate): 3.91 µM | TGI (PC-3 prostate): > 100 µM | GI50 (RPMI-8226 leukemia): 2.7 µM | TGI (RPMI-8226 leukemia): 24.1 µM | GI50 (RXF 393 renal): 1.11 µM | TGI (RXF 393 renal): 34 µM | GI50 (SF-268 CNS): 6.18 µM | TGI (SF-268 CNS): > 100 µM | GI50 (SF-295 CNS): 1.49 µM | TGI (SF-295 CNS): 40.6 µM | GI50 (SF-539 CNS): 0.251 µM | TGI (SF-539 CNS): 0.52 µM | GI50 (SK-MEL-2 melanoma): 0.708 µM | TGI (SK-MEL-2 melanoma): > 100 µM | GI50 (SK-MEL-28 melanoma): 49.3 µM | TGI (SK-MEL-28 melanoma): > 100 µM | GI50 (SK-MEL-5 melanoma): 2.99 µM | TGI (SK-MEL-5 melanoma): 8.19 µM | GI50 (SN12C renal): 5.51 µM | TGI (SN12C renal): 83.1 µM | GI50 (SNB-19 CNS): 3.43 µM | TGI (SNB-19 CNS): 48.2 µM | GI50 (SNB-75 CNS): 13.8 µM | TGI (SNB-75 CNS): > 100 µM | GI50 (SR leukemia): 2.49 µM | TGI (SR leukemia): > 100 µM | GI50 (SW-620 colon): 3.67 µM | TGI (SW-620 colon): > 100 µM | GI50 (T-47D breast): 3.76 µM | TGI (T-47D breast): > 100 µM | GI50 (TK-10 renal): 16.5 µM | TGI (TK-10 renal): 75.6 µM | GI50 (U251 CNS): 4.53 µM | TGI (U251 CNS): 20.2 µM | GI50 (UACC-257 melanoma): 6.47 µM | TGI (UACC-257 melanoma): > 100 µM | GI50 (UACC-62 melanoma): 0.526 µM | TGI (UACC-62 melanoma): 23.7 µM | GI50 (UO-31 renal): 2.87 µM | TGI (UO-31 renal): > 100 µM
